Assay [1] concerns the target Serotonin 2 (5-HT2) receptor (Rattus norvegicus, UniProt P30994+P08909+P14842). As to the kind of experiment: Binding affinity at serotonin 5-hydroxytryptamine 2 receptor by [3H]ketanserin displacement. It is filed as protein assay.
Another assay concerns the target D(2) dopamine receptor (Rattus norvegicus, UniProt P61169). As to the kind of experiment: Binding affinity at dopamine D2 receptor by [3H]spiperone displacement.

Each structure is given as a SMILES string. pIC50, pKi: −log10 of the molar value.

The term IC50 denotes the point on the concentration scale where inhibition reaches its midpoint. Lower therefore signals greater potency in that assay. Usually pIC50 stands for −log10 of the IC50, conventionally taken in molar units. One may read the pKi as the negative decadic logarithm of the Ki, by convention in mol/L.

Chain of D(2) dopamine receptor (P61169 whole entry): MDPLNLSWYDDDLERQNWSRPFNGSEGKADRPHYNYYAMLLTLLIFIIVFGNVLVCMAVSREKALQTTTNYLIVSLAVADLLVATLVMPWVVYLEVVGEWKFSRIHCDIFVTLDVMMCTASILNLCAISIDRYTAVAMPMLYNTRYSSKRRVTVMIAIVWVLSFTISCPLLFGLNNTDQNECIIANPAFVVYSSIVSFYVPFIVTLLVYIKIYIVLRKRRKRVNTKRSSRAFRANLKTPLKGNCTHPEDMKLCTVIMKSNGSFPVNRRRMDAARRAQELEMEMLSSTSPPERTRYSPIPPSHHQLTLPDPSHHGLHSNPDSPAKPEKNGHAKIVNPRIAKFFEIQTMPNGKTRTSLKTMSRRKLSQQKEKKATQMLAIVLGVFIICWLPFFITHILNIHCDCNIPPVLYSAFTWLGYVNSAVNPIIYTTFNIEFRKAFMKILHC

As for `OCCN1CCN([C@@H]2C[C@@H](c3ccc(F)cc3)c3ccc(C(F)(F)F)cc32)CC1` [TEFLUDAZINE], the concentration for half-maximal inhibition (IC50) in assay [1] was determined as 3.1 nM.
As to `CN1CCC(=C2c3ccccc3C(O)c3ccccc32)CC1` (stereo not drawn), the pIC50 on D(2) dopamine receptor (read-out: IC50) was 5.80. This compound also yielded an IC50 in assay [1] of 2.6 nM.
In assay [1], `O=C1NCCN1CCN1CCN([C@@H]2C[C@@H](c3ccc(F)cc3)c3cc(Cl)ccc32)CC1` came in with a half-maximal inhibitory concentration (IC50) of 2.6 nM.
Take `CN1CCC(=C2c3ccccc3C=Cc3ccc(Br)cc32)CC1`: at D(2) dopamine receptor, the pKi is 8.40.
Compound `CN1CCC(=C2c3ccccc3C=Cc3ccccc32)CC1` [CYPROHEPTADINE] gave a negative logarithm of the IC50 (pIC50) on D(2) dopamine receptor of 6.85.
Turning to `O=C1NCCN1CCN1CC=C(c2cn(-c3ccc(F)cc3)c3ccccc23)CC1`, at D(2) dopamine receptor (read-out: IC50), the pIC50 was 8.29. In assay [1], this compound returned an IC50 of 1.7 nM.

The record behind these values is ChEMBL document CHEMBL1127838, “Development of a receptor-interaction model for serotonin 5-HT2 receptor antagonists. Predicting selectivity with respect to dopamine D2 receptors” (J Med Chem, 1994).
